Reference: US20230212571A1, “COMPOSITIONS AND METHODS FOR DELIVERING POLYNUCLEOTIDES” (NeOnc Technologies, Inc., priority 2020, published 2023)

What was measured:
AVM-BEC [1] = assay: ELISA of AVM-BEC supernatants; format: cell-based, human
Excerpt: (§1) Human surgical specimens were obtained following written informed consent from patients in accordance with Declaration of Helsinki guidelines and the Institutional Review Board (HS-04B053), at Keck School of Medicine, USC. AVM-BECs were isolated from brain tissues of patients who underwent microsurgical AVM resection. Control BECs were isolated from the structurally normal […] of patients who underwent temporal lobectomy for intractable epilepsy. Endothelial cell (EC) isolation and culture were described^5,9. (Stapleton C J, Armstrong D L, Zidovetzki R, Liu C Y, Giannotta S L, Hofman F M. Thrombospondin-1 modulates the angiogenic phenotype of human cerebral arteriovenous malformation endothelial cells. Neurosurgery. 2011; 68(5):1342-1353) (Ferreira R, Santos T, Amar A, et al. Argonaute-2 promotes miR-18a entry in human brain endothelial cells. J Am Heart Assoc. 2014; 3(3):e000968) ECs were only used between passages 3-5. Experiments were performed under shear flow conditions (12 dyn/cm^2) to reproduce arterial flow^6. (Ferreira R, Santos T, Amar A, et al. MicroRNA-18a improves human cerebral arteriovenous malformation endothelial cell function. Stroke. 2014; 45(1):293-297). For hypoxic experiments, cells were cultured in a Galaxy 48R (Eppendorf) incubator at 3% O2. MicroRNAs were co-administered with Ago-2 to increase the cellular uptake of miR-18a^9 (Ferreira R, Santos T, Amar A, et al. Argonaute-2 promotes miR-18a entry in human brain endothelial cells. J Am Heart Assoc. 2014; 3(3):e000968) (FIG. 9). Methods regarding cell treatments and transfections were included in Data.
(§2) Small interfering RNA transfection was performed as previously described^5. Briefly, ECs were transfected with small interfering RNA (siRNA) against ID1 or PAI-1 (Thermo Fisher Scientific), or small interfering control (Santa Cruz Biotechnology) constructs using Lipofectamine RNAiMax (Thermo Fisher Scientific) per the manufacturer's instructions. Knockdown of ID1 or PAI-1 was confirmed by quantitative real-time polymerase chain reaction as described^6 (FIG. 19). The sequences of the forward and reverse primers for ID1 and PAI-1 were included in Table 2.
(§3) Plasmid constructs pcDNA3-ALK2^WT (Addgene #80870) and pcDNA3-ALK2^Q207D (Addgene #80871) were a gift from Aristidis Moustakas^7. (Meyer B, Schaller C, Frenkel C, Ebeling B, Schramm J. Distributions of local oxygen saturation and its response to changes of mean arterial blood pressure in the cerebral cortex adjacent to arteriovenous malformations. Stroke. 1999; 30(12):2623-2630) 10^4 AVM-BEC were seeded 24 h before transfection. The plasmid vector containing the 3′ untranslated region (3′UTR) of human BMP4, pRP [Exp]-Puro-CMV>Luciferase:{hBMP4_3′UTR}, was constructed and packaged by VectorBuilder. The vector ID is VB200205-1078zdv, which can be used to retrieve detailed information about the vector on vectorbuilder.com. Transient transfections were performed with Lipofectamine RNAiMax (Thermo Fisher Scientific) according to the manufacturer's instructions. After 4 h, medium was replaced by fresh medium containing microRNA.
(§4) MiR-18a (hsa-miR-18a-5p, 40 nM, Dharmacon) or a scramble microRNA (40 nM, Dharmacon) in nuclease-free water was added with argonaute 2 (Ago-2, 0.4 nM, Abcam) as the microRNA carrier and stabilizer^9. (Ferreira R, Santos T, Amar A, et al. Argonaute-2 promotes miR-18a entry in human brain endothelial cells. J Am Heart Assoc. 2014; 3(3):e000968). No transfection reagent was used with miR-18a or scramble microRNA treatments. Recombinant human TSP-1 (R&D Systems) stock solution was prepared in PBS and further diluted in culture medium to be used at a final concentration of 1000 ng/mL. Cells were treated during 24 h for mRNA and 48 h for protein expression studies. NEO100 (NeOnc Technologies) stock was prepared in DMSO and used immediately or stored at −20° C. […]

AVM-BEC [2] = settings: previous studies (Stapleton 2011); cited from earlier work
BEC = assay: ELISA of control BEC supernatants; format: cell-based, human; settings: control BEC supernatants, normoxia
Excerpt: as §1, §2, §3, §4

Substance: TSP-1: Recombinant human TSP-1 (R&D Systems), used at 1000 ng/mL
- levels of secreted PAI-1 (AVM-BEC [1]; AVM-BEC supernatants, normoxia, vs scramble microRNA): decreased
- levels of secreted VEGF (AVM-BEC [1]; AVM-BEC supernatants, normoxia, decrease only reached significance with miR-18a): decreased
- PAI-1 secretion (AVM-BEC [1]; AVM-BEC, hypoxia 3% oxygen): neither treatment with TSP-1 (P=0.3917), nor ID1 knock-down (P=0.1701) were able to significantly decrease the levels of PAI-1
- migration rate of AVM-BEC (AVM-BEC [2]): decreases their migration rate
- levels of secreted PAI-1 (BEC): without affecting control BEC
- levels of secreted VEGF (BEC): without affecting control BEC
